According to ChEMBL document CHEMBL1201862, “PubChem BioAssay data set” (2004):
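Values below derive from 48-hour exposures of cells grown in 96-well plates, with endpoints linearly interpolated between the two concentrations bracketing the appropriate inhibition level. The concentration for 50% growth inhibition is given as GI50.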 Active and inactive are the calls of the source. Rule as the data show it: active = GI50 up to about 1.1 µM and inactive = higher.

Experiments:
Test in all cases: NCI anticancer screen, dose series, 48 h
SF-295 = test system: SF-295
HOP-62 = test system: HOP-62
SK-MEL-5 = test system: SK-MEL-5
MDA-N = test system: MDA-N
SNB-19 = test system: SNB-19
MOLT-4 = test system: MOLT-4
A498 = test system: A498
RXF 393 = test system: RXF 393
Malme-3M = test system: Malme-3M
RPMI-8226 = test system: RPMI-8226
EKVX = test system: EKVX
Hs-578T = test system: Hs-578T
BT-549 = test system: BT-549
NCI-H522 = test system: NCI-H522
NCI/ADR-RES = test system: NCI/ADR-RES
SN12C = test system: SN12C
786-0 = test system: 786-0
DU-145 = test system: DU-145
CCRF-CEM = test system: CCRF-CEM

Row | Structure (SMILES) | GI50 (SF-295) | GI50 (HOP-62) | GI50 (SK-MEL-5) | GI50 (MDA-N) | GI50 (SNB-19) | GI50 (MOLT-4) | GI50 (A498) | GI50 (RXF 393) | GI50 (Malme-3M) | GI50 (RPMI-8226) | GI50 (EKVX) | GI50 (Hs-578T) | GI50 (BT-549) | GI50 (NCI-H522) | GI50 (NCI/ADR-RES) | GI50 (SN12C) | GI50 (786-0) | GI50 (DU-145) | GI50 (CCRF-CEM)
1 | CC(C)(C)CC(C)(C)c1cc(O)c(O)c(CN2CCCCC2)c1 | 17.5 µM (inactive) | 15.5 µM (inactive) | 15.6 µM (inactive) | 15.1 µM (inactive) | 15.3 µM (inactive) | 4.35 µM (inactive) | 14.3 µM (inactive) | 12.8 µM (inactive) | 12.8 µM (inactive) | 12.8 µM (inactive) | 12.7 µM (inactive) | 15.6 µM (inactive) | 15.1 µM (inactive) | 10.8 µM (inactive) | 5.09 µM (inactive) | 15.7 µM (inactive) | 13.4 µM (inactive) | 14.5 µM (inactive) | –
2 | O=C(O)CNCCc1ccccc1 | > 100 µM (inactive) | > 100 µM (inactive) | > 100 µM (inactive) | > 100 µM (inactive) | > 100 µM (inactive) | – | > 100 µM (inactive) | > 100 µM (inactive) | > 100 µM (inactive) | > 100 µM (inactive) | > 100 µM (inactive) | > 100 µM (inactive) | > 100 µM (inactive) | > 100 µM (inactive) | > 100 µM (inactive) | > 100 µM (inactive) | > 100 µM (inactive) | > 100 µM (inactive) | > 100 µM (inactive)
3 | COC(=O)C1=C(C(=O)OC)SC2(S1)C1=C(CCC1)SC(C(=O)OC)=C2C(=O)OC | 15.6 µM (inactive) | 12.7 µM (inactive) | 14.9 µM (inactive) | 14.5 µM (inactive) | 19.6 µM (inactive) | 2.29 µM (inactive) | 9.12 µM (inactive) | 4.62 µM (inactive) | 17.9 µM (inactive) | 1.86 µM (inactive) | 14.9 µM (inactive) | 18.5 µM (inactive) | 16 µM (inactive) | 2.99 µM (inactive) | 18.8 µM (inactive) | 10.7 µM (inactive) | – | 4.4 µM (inactive) | 2.17 µM (inactive)
4 | CCc1nc(N)c2nc(-c3ccc(C#N)cc3)oc2n1 | > 100 µM (inactive) | > 100 µM (inactive) | > 100 µM (inactive) | > 100 µM (inactive) | > 100 µM (inactive) | > 100 µM (inactive) | > 100 µM (inactive) | > 100 µM (inactive) | – | > 100 µM (inactive) | > 100 µM (inactive) | > 100 µM (inactive) | > 100 µM (inactive) | > 100 µM (inactive) | > 100 µM (inactive) | > 100 µM (inactive) | > 100 µM (inactive) | > 100 µM (inactive) | > 100 µM (inactive)
5 | CCOC(=O)c1sc2nc(SC)nc3c2c1NCN3C | 27.9 µM (inactive) | 15.1 µM (inactive) | 51.5 µM (inactive) | > 100 µM (inactive) | 20.5 µM (inactive) | – | 15.2 µM (inactive) | 13.2 µM (inactive) | 24.8 µM (inactive) | > 100 µM (inactive) | – | 20.1 µM (inactive) | 35.7 µM (inactive) | – | 19.6 µM (inactive) | 30.6 µM (inactive) | 15.2 µM (inactive) | 70.1 µM (inactive) | > 100 µM (inactive)
6 | COC1OC(C(C)O)C2OC(C)(C)OC12 (stereo not drawn) | > 100 µM (inactive) | > 100 µM (inactive) | > 100 µM (inactive) | > 100 µM (inactive) | > 100 µM (inactive) | > 100 µM (inactive) | > 100 µM (inactive) | – | – | > 100 µM (inactive) | > 100 µM (inactive) | > 100 µM (inactive) | > 100 µM (inactive) | > 100 µM (inactive) | > 100 µM (inactive) | > 100 µM (inactive) | > 100 µM (inactive) | > 100 µM (inactive) | > 100 µM (inactive)
7 | CC1(C)OC2OC(C(=O)c3ccccc3)C3OC(C)(C)OC3C2O1 (stereo not drawn) | > 100 µM (inactive) | > 100 µM (inactive) | > 100 µM (inactive) | > 100 µM (inactive) | > 100 µM (inactive) | > 100 µM (inactive) | > 100 µM (inactive) | > 100 µM (inactive) | – | > 100 µM (inactive) | > 100 µM (inactive) | > 100 µM (inactive) | > 100 µM (inactive) | > 100 µM (inactive) | > 100 µM (inactive) | > 100 µM (inactive) | > 100 µM (inactive) | > 100 µM (inactive) | > 100 µM (inactive)
8 | COc1ccc(C[C@@H]2OC3(C=CC(=O)CC3Sc3ccccc3)O[C@H]2Cc2ccc(OC)cc2)cc1 (stereo partly drawn) | 1.91 µM (inactive) | 0.432 µM (active) | 1.37 µM (inactive) | 1.52 µM (inactive) | 2.61 µM (inactive) | 0.282 µM (active) | 4.08 µM (inactive) | 0.107 µM (active) | 1.85 µM (inactive) | 0.31 µM (active) | – | 1.41 µM (inactive) | 0.223 µM (active) | – | 1.48 µM (inactive) | 1.61 µM (inactive) | 0.151 µM (active) | 2.23 µM (inactive) | 0.216 µM (active)
9 | N=C1NC(c2ccc(Cl)cc2)=CC(c2cccc(Cl)c2)S1 (stereo not drawn) | 33.8 µM (inactive) | 38.7 µM (inactive) | 27 µM (inactive) | 21.2 µM (inactive) | 16.8 µM (inactive) | 37.4 µM (inactive) | – | 23.8 µM (inactive) | 38 µM (inactive) | 17.3 µM (inactive) | 25.4 µM (inactive) | 26.5 µM (inactive) | 63.5 µM (inactive) | 20.1 µM (inactive) | 45.4 µM (inactive) | 27.7 µM (inactive) | 36.1 µM (inactive) | 66.1 µM (inactive) | 22.4 µM (inactive)
10 | O=S(=O)(O)c1ccc2c(/N=N/c3ccc(Sc4ccc(/N=N/c5c(O)ccc6cc(S(=O)(=O)O)ccc56)cc4)cc3)c(O)ccc2c1 | > 100 µM (inactive) | > 100 µM (inactive) | > 100 µM (inactive) | > 100 µM (inactive) | > 100 µM (inactive) | > 100 µM (inactive) | – | > 100 µM (inactive) | > 100 µM (inactive) | > 100 µM (inactive) | > 100 µM (inactive) | > 100 µM (inactive) | > 100 µM (inactive) | > 100 µM (inactive) | > 100 µM (inactive) | > 100 µM (inactive) | > 100 µM (inactive) | > 100 µM (inactive) | > 100 µM (inactive)
11 | CC1=C(C#N)c2nc3ccccc3n2C(=O)C1(C)CCO (stereo not drawn) | > 100 µM (inactive) | > 100 µM (inactive) | > 100 µM (inactive) | > 100 µM (inactive) | > 100 µM (inactive) | – | > 100 µM (inactive) | > 100 µM (inactive) | > 100 µM (inactive) | – | > 100 µM (inactive) | > 100 µM (inactive) | > 100 µM (inactive) | > 100 µM (inactive) | > 100 µM (inactive) | > 100 µM (inactive) | > 100 µM (inactive) | > 100 µM (inactive) | > 100 µM (inactive)
12 | COC(=O)CNCC1OC2OC(C)(C)OC2C1N=[N+]=[N-] (stereo not drawn) | > 100 µM (inactive) | > 100 µM (inactive) | > 100 µM (inactive) | > 100 µM (inactive) | > 100 µM (inactive) | > 100 µM (inactive) | > 100 µM (inactive) | > 100 µM (inactive) | – | > 100 µM (inactive) | > 100 µM (inactive) | > 100 µM (inactive) | > 100 µM (inactive) | – | > 100 µM (inactive) | > 100 µM (inactive) | > 100 µM (inactive) | > 100 µM (inactive) | > 100 µM (inactive)
13 | O=C(/C=C/c1ccccc1O)/C=C/c1ccccc1O | 1.67 µM (inactive) | 2.26 µM (inactive) | 1.37 µM (inactive) | 1.56 µM (inactive) | 1.82 µM (inactive) | 1.26 µM (inactive) | 1.82 µM (inactive) | – | 2.11 µM (inactive) | 0.19 µM (active) | – | 2.7 µM (inactive) | 1.24 µM (inactive) | – | 2.14 µM (inactive) | 1.72 µM (inactive) | 1.69 µM (inactive) | 1.51 µM (inactive) | 0.305 µM (active)
14 | CCCCCCCCC/C=C1\CC(CO)(COC(=O)c2ccccc2)OC1=O (stereo not drawn) | 21.2 µM (inactive) | 14.8 µM (inactive) | 12.5 µM (inactive) | 16.6 µM (inactive) | 20.9 µM (inactive) | 38.2 µM (inactive) | 26 µM (inactive) | 21.1 µM (inactive) | 14.5 µM (inactive) | – | 15.3 µM (inactive) | 17.3 µM (inactive) | 21.8 µM (inactive) | 17.9 µM (inactive) | 22.6 µM (inactive) | 19.2 µM (inactive) | 17.8 µM (inactive) | 29.1 µM (inactive) | 16.9 µM (inactive)
15 | Clc1ccc(Cc2nc3cc(Cl)c(Cl)cc3n2CC2CCCN3CCCCC23)cc1 (stereo not drawn) | 13.4 µM (inactive) | 18.5 µM (inactive) | 11.3 µM (inactive) | 11.7 µM (inactive) | 13.9 µM (inactive) | 4.22 µM (inactive) | 14.4 µM (inactive) | 13.8 µM (inactive) | 7.87 µM (inactive) | 24.5 µM (inactive) | 10.3 µM (inactive) | 9.79 µM (inactive) | 13.1 µM (inactive) | 12.2 µM (inactive) | 12.5 µM (inactive) | 12.3 µM (inactive) | 11 µM (inactive) | 12 µM (inactive) | –
16 | c1ccc2c(c1)[nH]c1c2cc[n+]2cc3c(cc12)CCCC3 | 3.18 µM (inactive) | 1.66 µM (inactive) | 1.54 µM (inactive) | 1.57 µM (inactive) | 3 µM (inactive) | 1.18 µM (inactive) | 5.38 µM (inactive) | – | – | 1.53 µM (inactive) | 4.89 µM (inactive) | 3.87 µM (inactive) | 2.76 µM (inactive) | 1.79 µM (inactive) | 44.6 µM (inactive) | 2.61 µM (inactive) | 2.28 µM (inactive) | 2.69 µM (inactive) | –
